pIC50: −log10 of the molar value. A value given as a limit tells only on which side of the number the result lay.

The term pIC50 denotes the IC50 on a negative log10 scale, so that one unit is a factor of ten.

T1 sequence (P33032 whole entry): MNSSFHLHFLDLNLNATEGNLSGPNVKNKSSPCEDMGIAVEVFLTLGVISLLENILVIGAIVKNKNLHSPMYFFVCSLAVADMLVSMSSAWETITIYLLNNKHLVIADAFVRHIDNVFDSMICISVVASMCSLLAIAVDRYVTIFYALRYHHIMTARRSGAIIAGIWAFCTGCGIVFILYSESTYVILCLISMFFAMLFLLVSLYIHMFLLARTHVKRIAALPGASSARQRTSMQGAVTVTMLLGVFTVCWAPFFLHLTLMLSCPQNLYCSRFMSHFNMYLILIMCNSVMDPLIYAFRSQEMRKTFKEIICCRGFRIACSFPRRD

This assay concerns the target T1, human MC5R (hMC5R) (Homo sapiens, UniProt P33032).
T1 construct: purchased Perkin Elmer RBXMC5M400UA
Nature of the assay: Human MC5R radioligand binding assay (membranes, [125I] NDP-MSH displacement). The conditions noted are these: hMC5R binding; tested as trifluoroacetate or hydrochloride salts, or free bases; read-out: MC5R radioligand IC50. The gist of the method:
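Frozen human MC5R membranes incubated with test compound and in-house iodogen-labeled, HPLC-purified [125I]NDP-MSH for 1 hr at 37° C. Binding measured as displacement of the radioligand.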
As for `O=C(NC[C@@H]1CCN(CC(c2ccccc2)c2ccccc2)C(=O)[C@H](CCN2CCCCC2)N1)c1ccc(C(F)(F)F)cc1` [Compound 434, N-(((3S,5S)-1-(2,2-diphenylethyl)-2-oxo-3-(2-(piperidin-1-yl)ethyl)-1,4-diazepan-yl)methyl)-4-(trifluoromethyl)benzamide], the negative-log IC50 (pIC50) was above 7.00.

`O=C(NCC[C@@H]1CCN(CC(c2ccccc2)c2ccccc2)C(=O)[C@H](CCN2CCCC2)N1)c1ccc2ccccc2c1` [Compound 339, N-(2-((3S,5R)-1-(2,2-diphenylethyl)-2-oxo-3-(2-(pyrrolidin-1-yl)ethyl)-1,4-diazepan-5-yl)ethyl)-2-naphthamide]: the pIC50 is above 6.00.

As for `CC(C)[C@H](CN1CC[C@@H](CNC(=O)c2ccc3ccccc3c2)N[C@@H](CCN2CCCCC2)C1=O)c1ccccc1` [Compound 395, N-(((3S,5S)-1-((S)-3-methyl-2-phenylbutyl)-2-oxo-3-(2-(piperidin-1-yl)ethyl)-1,4-diazepan-5-yl)methyl)-2-naphthamide], the pIC50 is above 7.00.

For the compound `O=C(NC[C@@H]1CCN(CC(c2ccccc2)c2ccccc2)C(=O)[C@H](CCN2CCCC2)N1)c1ccc2ccccc2c1` [Compound 367, N-(((3S,5S)-1-(2,2-diphenylethyl)-2-oxo-3-(2-(pyrrolidin-1-yl)ethyl)-1,4-diazepan-5-yl)methyl)-2-naphthamide], the pIC50 is above 7.00.

As to `O=C(O)c1ccc2cc(C(=O)NC[C@@H]3CCN(CC(c4ccccc4)c4ccccc4)C(=O)[C@H](CCN4CCCCC4)N3)ccc2c1` [Compound 473, 6-(((3S,5S)-1-(2,2-diphenylethyl)-2-oxo-3-(2-(piperidin-1-yl)ethyl)-1,4-diazepan-5-yl)methylcarbamoyl)-2-naphthoic acid], the pIC50 was above 6.00.

Turning to `CC[C@H](CN1CC[C@@H](CNC(=O)c2ccc(Cl)c(Cl)c2)N[C@@H](CCNC(C)C)C1=O)c1ccccc1` [Compound 465, 3,4-dichloro-N-(((3S,5S)-3-(2-(isopropylamino)ethyl)-2-oxo-1-((S)-2-phenylbutyl)-1,4-diazepan-5-yl)methyl)benzamide], the pIC50 is above 7.00.

On to `N=C(N)NCCC[C@@H]1N[C@H](CNC(=O)[C@@H]2Cc3ccccc3CN2)CCN(CC(c2ccccc2)c2ccccc2)C1=O` [Compound 131, (S)—N-(((3S,5S)-1-(2,2-diphenylethyl)-3-(3-guanidinopropyl)-2-oxo-1,4-diazepan-5-yl)methyl)-1,2,3,4-tetrahydroisoquinoline-3-carboxamide], for which the pIC50 was above 5.00.

As for `N=C(N)NCCC[C@@H]1N[C@H](CNC(=O)c2ccc3ccccc3c2)CCN(CCC2CCCCC2)C1=O` [Compound 242, N-(((3S,5S)-1-(2-cyclohexylethyl)-3-(3-guanidinopropyl)-2-oxo-1,4-diazepan-5-yl)methyl)-2-naphthamide], the pIC50 was above 6.00.

With `NCC[C@@H]1N[C@H](CNC(=O)C=Cc2ccccc2)CCN(CC(c2ccccc2)c2ccccc2)C1=O` [Compound 279, N-(((3S,5S)-3-(2-aminoethyl)-1-(2,2-diphenylethyl)-2-oxo-1,4-diazepan-5-yl)methyl)cinnamamide], the pIC50 is above 6.00.

On to `NCC[C@@H]1N[C@H](CNC(=O)c2ccc3cc(Cl)ccc3c2)CCN(CC(c2ccccc2)c2ccccc2)C1=O` [Compound 366, N-(((3S,5S)-3-(2-aminoethyl)-1-(2,2-diphenylethyl)-2-oxo-1,4-diazepan-5-yl)methyl)-6-chloro-2-naphthamide], for which the pIC50 was above 7.00.

On to `N=C(N)NCCC[C@@H]1N[C@H](CNC(=O)c2ccc3ccccc3c2)CCN(C[C@@H](NC(=O)C2CCC2)c2ccccc2)C1=O` [Compound 269, N-(((3S,5S)-1-((S)-2-(cyclobutanecarboxamido)-2-phenylethyl)-3-(3-guanidinopropyl)-2-oxo-1,4-diazepan-5-yl)methyl)-2-naphthamide], for which the pIC50 is above 6.00.

As for `CC[C@H](CN1CC[C@@H](CNC(=O)c2ccc(Cl)c(Cl)c2)N[C@@H](CCNCc2ccccc2)C1=O)c1ccccc1` [Compound 429, N-(((3S,5S)-3-(2-(benzylamino)ethyl)-2-oxo-1-((S)-2-phenylbutyl)-1,4-diazepan-5-yl)methyl)-3,4-dichlorobenzamide], the pIC50 was above 7.00.

`CC(=O)N[C@@H](Cc1c[nH]cn1)C(=O)N[C@H](Cc1ccc2ccccc2c1)[C@@H]1CCN(CC(c2ccccc2)c2ccccc2)C(=O)[C@H](CCCNC(=N)N)N1` [Compound 86, (S)-2-acetamido-N—((R)-1-((3S,5S)-1-(2,2-diphenylethyl)-3-(3-guanidinopropyl)-2-oxo-1,4-diazepan-5-yl)-2-(naphthalen-2-yl)ethyl)-3-(1H-imidazol-4-yl)propanamide]: the pIC50 was above 6.00.

For the compound `CC[C@H](CN1CC[C@@H](CNC(=O)c2ccc3ccccc3c2OC)N[C@@H](CCN2CCCCC2)C1=O)c1ccccc1` [Compound 538, 1-methoxy-N-(((3S,5S)-2-oxo-1-((S)-2-phenylbutyl)-3-(2-(piperidin-1-yl)ethyl)-1,4-diazepan-5-yl)methyl)-2-naphthamide], the pIC50 was above 7.00.

As to `CC[C@H](CN1CC[C@@H](CNC(=O)c2cc(-c3ccc(Cl)cc3)on2)N[C@@H](CCN2CCCCC2)C1=O)c1ccccc1` [Compound 533, 5-(4-chlorophenyl)-N-(((3S,5S)-2-oxo-1-((S)-2-phenylbutyl)-3-(2-(piperidin-1-yl)ethyl)-1,4-diazepan-5-yl)methyl)isoxazole-3-carboxamide], the pIC50 is above 8.00.

With `CC[C@H](CN1CC[C@@H](CNC(=O)c2ccc(Cl)c(Cl)c2)N[C@@H](CCN2CCCCCC2)C1=O)c1ccccc1` [Compound 452, N-(((3S,5S)-3-(2-(azepan-1-yl)ethyl)-2-oxo-1-((S)-2-phenylbutyl)-1,4-diazepan-5-yl)methyl)-3,4-dichlorobenzamide], the pIC50 was above 7.00.

For the compound `NCCC[C@@H]1N[C@H](CNC(=O)c2ccc3ccccc3c2)CCN(Cc2ccc(Cl)c(Cl)c2)C1=O` [Compound 320, N-(((3S,5S)-3-(3-aminopropyl)-1-(3,4-dichlorobenzyl)-2-oxo-1,4-diazepan-5-yl)methyl)-2-naphthamide], the pIC50 is above 5.00.

As for `CC[C@H](CN1CC[C@@H](CNC(=O)c2ccc(Cl)c(Cl)c2)N[C@@H](CCN2CCCC(F)(F)C2)C1=O)c1ccccc1` [Compound 484, 3,4-dichloro-N-(((3S,5S)-3-(2-(3,3-difluoropiperidin-1-yl)ethyl)-2-oxo-1-((S)-2-phenylbutyl)-1,4-diazepan-5-yl)methyl)benzamide], the negative logarithm of the IC50 (pIC50) was above 6.00.

As to `CC[C@H](CN1CCC(CNC(=O)c2ccc3cc(Cl)ccc3c2)NC(C2CCN(CC)CC2)C1=O)c1ccccc1` (stereo partly drawn) [Compound 455, 6-chloro-N-((3-(1-ethylpiperidin-4-yl)-2-oxo-1-((S)-2-phenylbutyl)-1,4-diazepan-5-yl)methyl)-2-naphthamide], the pIC50 was above 7.00.

For `N=C(N)NCCC[C@@H]1N[C@H](CNC(=O)/C(F)=C/c2ccccc2)CCN(CC(c2ccccc2)c2ccccc2)C1=O` [Compound 195, (Z)-N-(((3S,5S)-1-(2,2-diphenylethyl)-3-(3-guanidinopropyl)-2-oxo-1,4-diazepan-5-yl)methyl)-2-fluoro-3-phenylacrylamide], the pIC50 was above 6.00.

For the origin of these results see patent publication US8008291B2 (Mimetica Pty Ltd, priority 2008, dated 2011).
